# Results taken from US9066922B2, “Pharmaceutical composition for the treatment or prevention of diseases involving obesity, diabetes, metabolic syndrome, neuro-degenerative diseases and mitochondria dysfunction diseases” (MD BIOALPHA CO., LTD., priority 2005, dated 2015).
# Test system: endothelial nitric oxide synthase (eNOS)
# Test: Phosphorylation of eNOS in HUVEC
# Assay type: cell-based, Human
# Conditions: 10 μM
# Protocol: It is well-known that activation of AMPK activates NRF-1 and facilitates mitochondrial biogenesis. In addition, NO/cGMP activates PGC-1a and NRF-1 to facilitate mitochondrial biogenesis. In order to ascertain whether β-lapachone, which activates AMPK, is involved in production of nitric oxide (NO), a degree of phosphorylation, increasing the activity of endothelial nitric oxide synthase (eNOS), was determined. In order to examine phosphorylation of eNOS by the action of β-lapachone, Human Umbilical Vein Endothelial Cells (HUVEC) were seeded onto a 60-mm plate at a density of 1×10^5 cells, and cultured in EBM2+5% FBS medium for 24 hours. The culture medium was replaced with a serum-free EBM2 medium, and cells were treated with β-lapachone (10 μM) for a predetermined period of time. Phosphorylated eNOS was observed using Anti-pS1177 eNOS.
compound,measurement,value
"CC1(C)CCC2=C(O1)c1ccccc1C(=O)C2=O [Compound 1, β-Lapachone]",phosphorylation of eNOS after the maximum,"gradually diminished, thereby not observed 2 hours later"
same,time of maximum increase of phosphorylation of eNOS (Anti-pS1177 eNOS),30 min
